These results are taken from PubChem BioAssay (NCI).

Where “and” joins values, the source holds several entries; their conditions need not be identical. Equal values may be shown once.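 Cultured in 96-well plates, cells were exposed to test compound for 48 hours across five concentrations. Here, GI50 denotes the concentration required for 50% inhibition of growth. TGI: total growth inhibition.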

Test systems include HOP-18 NSCLC; DMS 114 small cell lung; MDA-N; KM20L2 colon; HS 578T breast; T-47D breast; DMS 273 small cell lung.
Common to all, as to test: NCI tumour cell line growth inhibition, 48 h

Take `CCCCCCCC(CC(=O)NC(CO)C(=O)NC(CO)CC(C)C)OC(=O)CC(CCCCCCC)OC(=O)CC(CCCCCCC)OC1OC(C)C(O)C(OC2OC(C)C(O)C(O)C2O)C1O` (configuration not stated): the TGI stood at 32.1 µM in the assay on HOP-18 NSCLC; 16.5 µM in the assay on DMS 114 small cell lung; 20.5 µM in the assay on MDA-N; 32.1 µM in the assay on KM20L2 colon; 22.7 µM in the assay on HS 578T breast; 26.6 µM in the assay on T-47D breast. The compound also showed a TGI in the assay on DMS 273 small cell lung of 24 µM.
In the case of `O=C(c1cccs1)c1nc2cc(Cl)ccc2[n+]([O-])c1C(F)(F)F`, in the assay on HS 578T breast, the GI50 was over 100 µM and the TGI is over 100 µM.
Take `CCCCN(CC)CCCCCCCCCCN1CCCc2cc(OC)ccc21`: in the assay with HS 578T breast, the GI50 is 4.2 µM and the TGI is over 100 µM. In addition, in the assay on T-47D breast, the GI50 was 2.11 µM and the TGI turned out to be 5.83 µM.
For the compound `CN(CSc1ccc(Cl)cc1)c1ccc(CSc2ccc(Cl)cc2)cc1`, the figures for the GI50 in the assay with HS 578T breast and with T-47D breast were 3.7 µM and 4.22 µM, respectively. In addition, the TGI in the assay on HS 578T breast came out at 21.1 µM; in the assay on T-47D breast it was 72 µM.
`CCC(C)CC(C)C(=O)c1c(O)ccn(O)c1=O` (configuration not stated): in the assay on HS 578T breast, the GI50 is 3.08 µM and the TGI was over 100 µM. For the same compound, in the assay with T-47D breast, the GI50 is 4.12 µM and the TGI worked out at 76.9 µM.
In the case of `CCN1C(=O)N(CC)C2C1NC(=S)N2/N=C/C=C/c1ccccc1OC` (configuration not stated), the GI50 with HS 578T breast was 0.0514 µM; in the assay on T-47D breast, 34.6 µM. Moreover, the TGI in the assay with HS 578T breast and in the assay with T-47D breast was over 100 µM throughout.
With `N#C/C(=C\c1ccc(F)cc1)n1nc2cccc(F)c2n1`, in the assay on T-47D breast, the GI50 is 4.2 µM and the TGI was over 100 µM.
As for `Cn1c(NCC(CN2CCCC2)OC(=O)c2ccccc2)cc(=O)n(C)c1=O` (configuration not stated), the GI50 with HS 578T breast and with T-47D breast was over 100 µM in each case. The TGI in the assay with HS 578T breast and with T-47D breast was over 100 µM in each case.
In the case of `O=C(Nc1ccc(I)cc1)c1cccc([N+](=O)[O-])c1O`, the values for the GI50 in the assay with HS 578T breast and with T-47D breast were 4.13 µM and 2.98 µM, respectively. The TGI amounted to 87.7 µM in the assay on HS 578T breast and 12.6 µM in the assay with T-47D breast.
Take `O=C1/C(=C\c2ccccc2)CN(C(=O)c2ccccc2)C/C1=C\c1ccccc1`: in the assay with HS 578T breast, the GI50 was 2.31 µM and the TGI amounted to 7.21 µM. In addition, in the assay with T-47D breast, the GI50 is 4.93 µM and the TGI came to 19.9 µM.
For `C/C(=N/NC(=S)N1CC2CCC(CC2)C1)c1cnccn1`, the TGI was determined as 28.7 µM with MDA-N, 11.4 µM in the assay on HS 578T breast and 13.3 µM with T-47D breast.
Turning to `COc1ccc(C2CC(c3ccc4ccccc4c3)=NN2c2nc(O)c(C3=c4cc(OC)ccc4=NC3=O)s2)cc1` (configuration not stated), the GI50 in the assay with HS 578T breast was 0.0418 µM; with T-47D breast, 0.0401 µM. Further, the figures for the TGI in the assay with HS 578T breast and with T-47D breast were 0.614 µM and 0.184 µM, respectively.
In the same order, the values of `NC(=O)CCc1ccccc1Oc1nccc(-c2c(-c3ccc(F)cc3)ncn2C2CCNCC2)n1` are over 25 µM, over 25 µM, over 25 µM and over 25 µM.
Consider `CC1CCC2CC1NC(=O)CCOCCC(=O)NC2(C)C` (configuration not stated), for which the TGI with MDA-N and in the assay on T-47D breast was over 100 µM each time.
For the compound `CC1=NC=C(O)c2ccccc2O1`, the TGI in the assay on DMS 114 small cell lung, with KM20L2 colon and with DMS 273 small cell lung was over 100 µM throughout.
As for `O=c1[nH]c2ccccc2n2cc3ccccc3c12`, in the assay on HS 578T breast, the GI50 was 0.52 µM and the TGI came out at 34.7 µM. In addition, in the assay on T-47D breast, the GI50 was 7.45 µM and the TGI is over 100 µM.
Consider `Cc1ccc(C(=O)N2CCCCC2)cc1N=NN(C)C`, for which the TGI with DMS 114 small cell lung and in the assay with DMS 273 small cell lung was over 100 µM each time.
Turning to `O=C(/C=C/c1cccc(S(=O)(=O)Nc2ccccc2)c1)NO`, in the assay with HS 578T breast, the GI50 is 1.28 µM and 0.52 µM; the TGI was > 81.8 µM and 34.9 µM. Also, the GI50 with T-47D breast was 0.227 µM and 0.144 µM.
`O=[N+]([O-])/C=C/c1cc2ccc3ccccc3c2[nH]1`: the TGI in the assay on MDA-N worked out at 4.79 µM; in the assay with HS 578T breast, 22.2 µM; in the assay on T-47D breast it was 3.89 µM.
As for `O=C(CCN1CCC(CCO)CC1)Nc1ccc2c(c1)C(=O)c1ccc(NC(=O)CCN3CCC(CCO)CC3)cc1C2=O`, the TGI in the assay with HOP-18 NSCLC turned out to be 80.1 µM; with DMS 114 small cell lung, 21.7 µM; in the assay with KM20L2 colon, 77.8 µM; with DMS 273 small cell lung, 19.8 µM.
As for `Cc1cc(=O)oc2cc(OC(=O)Nc3ccccc3)ccc12`, the TGI with MDA-N, with HS 578T breast and in the assay on T-47D breast was over 100 µM throughout.
For the compound `CCC(C)(C)[C@H](NC(=O)[C@H]1CCCCN1C)C(=O)N(C)[C@H](C[C@@H](OC(C)=O)c1nc(C(=O)N[C@@H](Cc2ccccc2)C[C@H](C)C(=O)O)cs1)C(C)C`, in the assay with HS 578T breast, the GI50 was under 0.00167 µM and the TGI is over 11.5 µM.
On to `O=Cc1ccc(-c2ccc(-c3ccc(C=O)o3)[se]2)o1`, for which, in the assay with HS 578T breast, the GI50 is over 100 µM and the TGI was over 100 µM. For the same compound, in the assay with T-47D breast, the GI50 was over 100 µM and the TGI is over 100 µM.
For the compound `C/C(=N\O)c1cccc(Nc2cc(-c3ccccc3)nc3c(O)cccc23)c1`, in the assay with HS 578T breast, the GI50 is 4.34 µM and the TGI is over 60 µM. Besides, in the assay with T-47D breast, the GI50 was 2.36 µM and the TGI came out at 30.5 µM.
Consider `CS(=N)(=O)CCC(N)P(=O)(O)O` (configuration not stated), for which the TGI with MDA-N, in the assay on HS 578T breast and in the assay on T-47D breast was over 100 µM each time.
Turning to `Cc1cc(C(O)(c2ccc(Nc3ccccc3)cc2)c2ccc(Nc3ccc(S(=O)(=O)O)cc3)cc2)ccc1N` (configuration not stated), in the assay with HS 578T breast, the GI50 was 1.5 µM and the TGI was 5.55 µM. Besides, in the assay with T-47D breast, the GI50 was 0.609 µM and the TGI is 3.18 µM.
Regarding `CC(C)OCc1cc(CN2CCN(c3cccc(Cl)c3)CC2)c(O)c2ncccc12`, the GI50 in the assay with HS 578T breast was 4.03 µM; in the assay with T-47D breast, 0.556 µM. The values for the TGI in the assay with HS 578T breast and with T-47D breast were 35.3 µM and 18.4 µM, respectively.
On to `C=C1C(=O)c2cc3c(cc2C(c2cc(OC)c(OC)c(OC)c2)[C@@H]1C(=O)O)OCO3` (some centres not stated), for which the TGI with HOP-18 NSCLC and in the assay on DMS 114 small cell lung was over 100 µM each time.
